# Marks after values point to notes of the source that are not given here.
# Key:
# laying hens = assay: Laying hen trial, two-by-two factorial xylanase / COS, 60 days; format: in vivo, HiSex laying hens
# Protocol: The researchers combined xylanase and COS in a two-by-two factorial design study in order to investigate the impact of combining xylanase and COS on animal intestinal health, and specifically the microbiome. Materials and Methods: The effects of dietary supplementation of a combination of xylanase/COS (prototype or “[…]”) were evaluated in a laying hen trial over a duration of 60 days. A total of 40 HiSex laying hens were used in this experiment, with four diets and 10 replicates per diet. Dosages were determined based on extrapolation of the in vitro cell culture data. Laying hens were allocated into four different groups: (T1) Control; […] (T3) xylanase alone, using […] Industries, Inc.); (T4) and a combination of xylanase and COS. The diets were based on wheat ( 55%), soybean and sunflower meal.
# broilers = assay: Broiler trial, xylanase/COS dose response, 35 days, zootechnical performance; format: in vivo
# Protocol: The researchers performed a study in growing poultry, in which xylanase and COS were combined in a dose response study in order to study the impact of combining xylanase and COS on poultry growth.
# Materials and Methods: The effects of dietary supplementation of a combination of xylanase/COS were evaluated in a broiler trial over a duration of 35 days. A total of 1200 Ross broilers were used in this experiment, with five diets and 12 replicates per diet.
# [1] = Grower phase, 15-35 days of age
# [2] = Starter phase, 0-14 days of age
substance,measurement,setting,value
"beta 1-4, endo-xylanase enzyme [Xygest HT]",Albumin Height,laying hens; End of Phase 1,7.1 a mm
same,Egg Shell Thickness,laying hens; End of Phase 1,0.397 a mm
same,Haugh Unit (HU),laying hens; End of Phase 1,84.3 a
same,Shell Breaking Strength,laying hens; End of Phase 1,4.6 a kg · force
same,Yolk Color Score (DSM method),laying hens; End of Phase 1,5.3 a
same,Yolk Diameter,laying hens; End of Phase 1,43.2 mm
same,Yolk Height,laying hens; End of Phase 1,18.7 mm
same,Yolk Index,laying hens; End of Phase 1,0.44
same,Albumin Height,laying hens; End of Phase 2,7.9 a mm
same,Egg Shell Thickness,laying hens; End of Phase 2,0.428 a mm
same,Haugh Unit (HU),laying hens; End of Phase 2,88.7 a
same,Shell Breaking Strength,laying hens; End of Phase 2,4.7 ab kg · force
same,Yolk Color Score (DSM method),laying hens; End of Phase 2,6.7 a
same,Yolk Diameter,laying hens; End of Phase 2,44.2 mm
same,Yolk Height,laying hens; End of Phase 2,18.3 ab mm
same,Yolk Index,laying hens; End of Phase 2,0.42 a
same,"Egg mass, % Improvement compared to the control treatment","laying hens; laying hens, 60 days",0.91%
same,"Egg weight, % Improvement compared to the control treatment","laying hens; laying hens, 60 days",0.58%
same,"FCR, % Improvement compared to the control treatment","laying hens; laying hens, 60 days",−0.07%
same,laying percentage compared to the control group (in words),"laying hens; laying hens, 60 days",significant increase
same,"nutrient digestibility (in words, FIG. 6-11)","laying hens; laying hens, 60 days",Even a better effect
same,ADFI,"broilers; Global trial, 0-35 days of age",87.2 g/day
same,FCR,"broilers; Global trial, 0-35 days of age",1.51^ab
same,M-ADFI (mortality adjusted mean daily feed intake),"broilers; Global trial, 0-35 days of age",86.8 g/day
same,M-ADG (mortality adjusted mean daily gain),"broilers; Global trial, 0-35 days of age",57.5^a g/d
same,M-FCR (Mortality adjusted feed:gain),"broilers; Global trial, 0-35 days of age",1.51^ab
same,ADFI,broilers; [1],123.7 g/day
same,ADG,broilers; [1],80.0^a g/d
same,FCR,broilers; [1],1.55^ab
same,M-ADFI (mortality adjusted mean daily feed intake),broilers; [1],123.3 g/day
same,M-ADG (mortality adjusted mean daily gain),broilers; [1],79.9^a g/d
same,M-FCR (Mortality adjusted feed:gain),broilers; [1],1.54^ab
same,ADFI,broilers; [2],32.9 g/day
same,ADG,broilers; [2],24.5 g/day
same,FCR,broilers; [2],1.35
same,M-ADFI (mortality adjusted mean daily feed intake),broilers; [2],32.8 g/day
same,M-ADG (mortality adjusted mean daily gain),broilers; [2],24.4 g/day
same,M-FCR (Mortality adjusted feed:gain),broilers; [2],1.34^ab
same,Body weight,"broilers; broilers, 14 days of age",386 g

# — patent US20250120420A1, “FEED ADDITIVE FOR IMPROVING ANIMAL PERFORMANCE, DIGESTION AND INTESTINAL HEALTH AND RELATED METHODS” (priority 2023, published 2025)
